{"source": "ChEMBL document CHEMBL1123898", "about": "“Antitumor imidazotetrazines. 14. Synthesis and antitumor activity of 6- and 8-substituted imidazo[5,1-d]-1,2,3,5-tetrazinones and 8-substituted pyrazolo[5,1-d]-1,2,3,5-tetrazinones” (1987)", "key": {"L1210 [1]": {"test_system": "L1210", "test": "Antitumor activity was assessed against L1210 tumors in B6D2F1 mouse by inoculation of 10e5 tumor cells through iv route and number of Survivors to duration was reported at 200 mg/kg po dose; 10/10", "format": "functional"}, "L1210 [2]": {"test_system": "L1210", "test": "Antitumor activity was assessed against L1210 tumors in B6D2F1 mouse by inoculation of 10e5 tumor cells through iv route and mean death of animals (treated/control) was reported at 50 mg/kg po dose", "format": "functional"}, "L1210 [3]": {"test_system": "L1210", "test": "Antitumor activity was assessed against L1210 tumors in B6D2F1 mouse by inoculation of 10e5 tumor cells through iv route and mean death of animals (treated/control) was reported at 100 mg/kg po dose", "format": "functional"}, "L1210 [4]": {"test_system": "L1210", "test": "Antitumor activity was assessed against L1210 tumors in B6D2F1 mouse by inoculation of 10e5 tumor cells through iv route and mean death of animals (treated/control) was reported at 200 mg/kg po dose", "format": "functional"}, "[5]": {"test": "Antitumor activity was assessed against TLX5 tumors in CBA/CA mouse by inoculation of 2 x 10e5 tumor cells through sc route and mean death of animals (treated/control) was reported at 160 mg/kg ip dose", "format": "functional", "conditions": "route subcutaneous"}, "[6]": {"test": "Antitumor activity was assessed against TLX5 tumors in CBA/CA mouse by inoculation of 2 x 10e5 tumor cells through sc route and mean death of animals (treated/control) was reported at 320 mg/kg ip dose", "format": "functional", "conditions": "route subcutaneous"}, "[7]": {"test": "Antitumor activity was assessed against TLX5 tumors in CBA/CA mouse by inoculation of 2 x 10e5 tumor cells through sc route and mean death of animals (treated/control) was reported at 40 mg/kg ip dose", "format": "functional", "conditions": "route subcutaneous"}, "[8]": {"test": "Antitumor activity was assessed against TLX5 tumors in CBA/CA mouse by inoculation of 2 x 10e5 tumor cells through sc route and number of Survivors to duration was reported at 160 mg/kg ip dose; 1/5", "format": "functional", "conditions": "route subcutaneous"}, "[9]": {"test": "Antitumor activity was assessed against TLX5 tumors in CBA/CA mouse by inoculation of 2 x 10e5 tumor cells through sc route and mean death of animals (treated/control) was reported at 80 mg/kg ip dose", "format": "functional", "conditions": "route subcutaneous"}, "L1210 [10]": {"test_system": "L1210", "test": "Antitumor activity was assessed against L1210 tumors in B6D2F1 mouse by inoculation of 10e5 tumor cells through intravenous route and mean death of animals (treated/control) was reported at 10 mg/kg peroral dose", "format": "functional", "conditions": "route oral"}, "L1210 [11]": {"test_system": "L1210", "test": "Antitumor activity was assessed against L1210 tumors in B6D2F1 mouse by inoculation of 10e5 tumor cells through intravenous route and mean death of animals (treated/control) was reported at 20 mg/kg peroral dose", "format": "functional", "conditions": "route oral"}, "L1210 [12]": {"test_system": "L1210", "test": "Antitumor activity was assessed against L1210 tumors in B6D2F1 mouse by inoculation of 10e5 tumor cells through intravenous route and mean death of animals (treated/control) was reported at 40 mg/kg peroral dose", "format": "functional", "conditions": "route oral"}, "L1210 [13]": {"test_system": "L1210", "test": "Antitumor activity was assessed against L1210 tumors in B6D2F1 mouse by inoculation of 10e5 tumor cells through intravenous route and mean death of animals (treated/control) was reported at 5 mg/kg peroral dose", "format": "functional", "conditions": "route oral"}, "L1210 [14]": {"test_system": "L1210", "test": "Antitumor activity was assessed against L1210 tumors in B6D2F1 mouse by inoculation of 10e5 tumor cells through intravenous route and number of Survivors to duration was reported at 40 mg/kg peroral dose; 1/7", "format": "functional", "conditions": "route oral"}, "[15]": {"test": "Antitumor activity was assessed against TLX5 tumors in CBA/CA mouse by inoculation of 2 x 10e5 tumor cells through subcutaneous route and number of Survivors to duration was reported at 40 mg/kg ip dose; 4/5", "format": "functional"}, "[16]": {"test": "Antitumor activity was assessed against TLX5 tumors in CBA/CA mouse by inoculation of 2 x 10e5 tumor cells through subcutaneous route and mean death of animals (treated/control) was reported at 10 mg/kg ip dose", "format": "functional"}, "[17]": {"test": "Antitumor activity was assessed against TLX5 tumors in CBA/CA mouse by inoculation of 2 x 10e5 tumor cells through subcutaneous route and mean death of animals (treated/control) was reported at 20 mg/kg ip dose", "format": "functional"}, "[18]": {"test": "Antitumor activity was assessed against TLX5 tumors in CBA/CA mouse by inoculation of 2 x 10e5 tumor cells through subcutaneous route and mean death of animals (treated/control) was reported at 40 mg/kg ip dose", "format": "functional"}, "[19]": {"test": "Antitumor activity was assessed against TLX5 tumors in CBA/CA mouse by inoculation of 2 x 10e5 tumor cells through subcutaneous route and mean death of animals (treated/control) was reported at 5 mg/kg ip dose", "format": "functional"}, "[20]": {"test": "Antitumor activity was assessed against TLX5 tumors in CBA/CA mouse by inoculation of 2 x 10e5 tumor cells through subcutaneous route and mean death of animals (treated/control) was reported at 160 mg/kg dose", "format": "functional"}, "[21]": {"test": "Antitumor activity was assessed against TLX5 tumors in CBA/CA mouse by inoculation of 2 x 10e5 tumor cells through subcutaneous route and mean death of animals (treated/control) was reported at 20 mg/kg dose", "format": "functional"}, "[22]": {"test": "Antitumor activity was assessed against TLX5 tumors in CBA/CA mouse by inoculation of 2 x 10e5 tumor cells through subcutaneous route and mean death of animals (treated/control) was reported at 320 mg/kg dose", "format": "functional"}, "[23]": {"test": "Antitumor activity was assessed against TLX5 tumors in CBA/CA mouse by inoculation of 2 x 10e5 tumor cells through subcutaneous route and mean death of animals (treated/control) was reported at 40 mg/kg dose", "format": "functional"}, "[24]": {"test": "Antitumor activity was assessed against TLX5 tumors in CBA/CA mouse by inoculation of 2 x 10e5 tumor cells through subcutaneous route and mean death of animals (treated/control) was reported at 80 mg/kg dose", "format": "functional"}, "[25]": {"test": "Antitumor activity was assessed against L1210 tumors in B6D2F1 mouse by inoculation of 10e5 tumor cells through intravenous route and mean death of animals (treated/control) was reported at 100 mg/kg peroral dose", "format": "functional", "conditions": "route oral"}, "[26]": {"test": "Antitumor activity was assessed against L1210 tumors in B6D2F1 mouse by inoculation of 10e5 tumor cells through intravenous route and mean death of animals (treated/control) was reported at 200 mg/kg peroral dose", "format": "functional", "conditions": "route oral"}, "[27]": {"test": "Antitumor activity was assessed against L1210 tumors in B6D2F1 mouse by inoculation of 10e5 tumor cells through intravenous route and mean death of animals (treated/control) was reported at 50 mg/kg peroral dose", "format": "functional", "conditions": "route oral"}, "[28]": {"test": "Antitumor activity was assessed against TLX5 tumors in CBA/CA mouse by inoculation of 2 x 10e5 tumor cells through subcutaneous route and number of Survivors to duration was reported at 80 mg/kg iv dose; 3/5"}, "[29]": {"test": "Antitumor activity was assessed against TLX5 tumors in CBA/CA mouse by inoculation of 2 x 10e5 tumor cells through subcutaneous route and number of Survivors to duration was reported at 40 mg/kg iv dose; 5/5"}, "L1210 [30]": {"test_system": "L1210", "test": "Antitumor activity was assessed against L1210 tumors in B6D2F1 mouse by inoculation of 10e5 tumor cells through intraperitoneal route and number of Survivors to duration was reported at 20 mg/kg peroral dose; 8/10", "conditions": "route oral"}, "L1210 [31]": {"test_system": "L1210", "test": "Antitumor activity was assessed against L1210 tumors in B6D2F1 mouse by inoculation of 10e5 tumor cells through intraperitoneal route and number of Survivors to duration was reported at 40 mg/kg peroral dose; 4/10", "conditions": "route oral"}}, "data": [{"smiles": "CN(C)C(=O)c1cnn2c(=O)n(CCCl)nnc12", "values": [{"measurement": "Survivors", "setting": "L1210 [1]", "value": 10}, {"measurement": "T/C", "setting": "L1210 [2]", "value": 144, "unit": "%"}, {"measurement": "T/C", "setting": "L1210 [3]", "value": 250, "unit": "%"}, {"measurement": "T/C", "setting": "L1210 [4]", "value": ">600", "unit": "%"}, {"measurement": "T/C", "setting": "[5]", "value": ">248", "unit": "%"}, {"measurement": "T/C", "setting": "[6]", "value": 48, "unit": "%"}, {"measurement": "T/C", "setting": "[7]", "value": 109, "unit": "%"}, {"measurement": "Survivors", "setting": "[8]", "value": 1}, {"measurement": "T/C", "setting": "[9]", "value": 131, "unit": "%"}]}, {"smiles": "NC(=O)c1ncn2c(=O)n(CCCl)nnc12", "note": "[MITOZOLOMIDE]", "values": [{"measurement": "T/C", "setting": "L1210 [10]", "value": 178, "unit": "%"}, {"measurement": "T/C", "setting": "L1210 [11]", "value": 217, "unit": "%"}, {"measurement": "T/C", "setting": "L1210 [12]", "value": ">330", "unit": "%"}, {"measurement": "T/C", "setting": "L1210 [13]", "value": 133, "unit": "%"}, {"measurement": "Survivors", "setting": "L1210 [14]", "value": 1}, {"measurement": "Survivors", "setting": "[15]", "value": 4}, {"measurement": "T/C", "setting": "[16]", "value": 163, "unit": "%"}, {"measurement": "T/C", "setting": "[17]", "value": 167, "unit": "%"}, {"measurement": "T/C", "setting": "[18]", "value": ">458", "unit": "%"}, {"measurement": "T/C", "setting": "[19]", "value": 113, "unit": "%"}]}, {"smiles": "O=C(Nc1ccccc1)c1ncn2c(=O)n(CCCl)nnc12", "values": [{"measurement": "T/C", "setting": "[20]", "value": 98, "unit": "%"}, {"measurement": "T/C", "setting": "[21]", "value": 98, "unit": "%"}, {"measurement": "T/C", "setting": "[22]", "value": 98, "unit": "%"}, {"measurement": "T/C", "setting": "[23]", "value": 103, "unit": "%"}, {"measurement": "T/C", "setting": "[24]", "value": 100, "unit": "%"}]}, {"smiles": "NC(=O)c1nc(CCc2ccccc2)n2c(=O)n(CCCl)nnc12", "values": [{"measurement": "T/C", "setting": "[25]", "value": 100, "unit": "%"}, {"measurement": "T/C", "setting": "[26]", "value": 100, "unit": "%"}, {"measurement": "T/C", "setting": "[27]", "value": 100, "unit": "%"}]}, {"smiles": "CN(C)C(=O)c1ncn2c(=O)n(CCCl)nnc12", "values": [{"measurement": "T/C", "setting": "L1210 [10]", "value": 197, "unit": "%"}, {"measurement": "T/C", "setting": "L1210 [11]", "value": ">290", "unit": "%"}, {"measurement": "T/C", "setting": "L1210 [12]", "value": ">235", "unit": "%"}, {"measurement": "T/C", "setting": "[20]", "value": 68, "unit": "%"}, {"measurement": "T/C", "setting": "[21]", "value": 161, "unit": "%"}, {"measurement": "T/C", "setting": "[23]", "value": ">508", "unit": "%"}, {"measurement": "T/C", "setting": "[24]", "value": ">358", "unit": "%"}, {"measurement": "Survivors", "setting": "[28]", "value": 3}, {"measurement": "Survivors", "setting": "[29]", "value": 5}, {"measurement": "Survivors", "setting": "L1210 [30]", "value": 8}, {"measurement": "Survivors", "setting": "L1210 [31]", "value": 4}]}]}
